# Measured values as given in PubChem BioAssay (NCI).
#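 Cells were grown in 96-well plates and exposed to each compound for 48 hours at five concentrations; endpoints were interpolated linearly between bracketing concentrations, or set to the highest concentration if not reached. GI50 is the concentration that inhibits growth by half. TGI: concentration producing complete growth inhibition.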
# How the values were obtained:
# Experiment in all cases: growth of human tumour cells (NCI), 48 h
# [1] = test system: A498 renal
# [2] = test system: A549 NSCLC
# [3] = test system: EKVX NSCLC
# [4] = test system: MOLT-4 leukemia
# [5] = test system: NCI-H23 lung
# [6] = test system: OVCAR-8 ovarian
# [7] = test system: PC-3 prostate
Compound,GI50 [1],TGI [1],GI50 [2],TGI [2],GI50 [3],TGI [3],GI50 [4],TGI [4],GI50 [5],TGI [5],GI50 [6],TGI [6],GI50 [7],TGI [7]
COc1cc(Nc2nccc(-c3cnn4ncccc34)n2)cc(OC)c1,0.0576 µM,0.183 µM,0.119 µM,5.67 µM,0.113 µM,4.96 µM,0.0516 µM,0.165 µM,0.0579 µM,0.586 µM,0.0802 µM,> 12.7 µM,0.0843 µM,2.74 µM
Cc1cnc2n(c1=O)Cc1ccccc1CO2,19.5 µM,45.4 µM,28.7 µM,> 100 µM,20.8 µM,45.1 µM,18.3 µM,39.3 µM,21.1 µM,60.5 µM,23.4 µM,82.5 µM,18.7 µM,43.7 µM
COc1ccc(S(=O)(=O)Nc2c(/C=C\c3cc(OC)c(OC)c(OC)c3)ccc(OC)c2O)cc1OC,0.0413 µM,0.291 µM,0.403 µM,> 100 µM,0.452 µM,> 100 µM,0.44 µM,> 100 µM,0.318 µM,> 100 µM,0.416 µM,> 100 µM,0.244 µM,> 100 µM
c1ccc2c(c1)-c1nc3ccccc3cc1C2N1CCOCC1 (stereo not drawn),,> 100 µM,,> 100 µM,,> 100 µM,,> 100 µM,,> 100 µM,,> 100 µM,,> 100 µM
C=C(C=O)[C@@H]1CC=C(C=O)CC1,28.8 µM,77.8 µM,35.1 µM,> 91.7 µM,14.5 µM,67.6 µM,3.69 µM,> 100 µM,3.83 µM,> 100 µM,3.69 µM,> 100 µM,4.12 µM,24.2 µM
O=C(Nc1ccc(-n2cc(-c3ccncc3)c(-c3ccc(Cl)c(O)c3)n2)cc1)c1ccc(Cl)c(C(F)(F)F)c1,5.53 µM,34.9 µM,5.41 µM,> 31.4 µM,4.65 µM,> 25 µM,0.652 µM,> 29.3 µM,1.72 µM,5.08 µM,2.82 µM,> 46 µM,1.15 µM,30.8 µM
Nc1ncnc2c1c(-c1ccc(Oc3ccccc3)cc1)nn2C[C@H]1SSC[C@H]1O,1.84 µM,4.24 µM,0.394 µM,2.07 µM,0.309 µM,1.73 µM,0.0184 µM,0.0492 µM,0.242 µM,0.968 µM,1.09 µM,3.87 µM,2.05 µM,11.8 µM
Nc1c(S(=O)(=O)O)cc2c(c1Cl)C(=O)c1ccccc1C2=O,> 100 µM,> 100 µM,> 100 µM,> 100 µM,> 100 µM,> 100 µM,> 100 µM,> 100 µM,> 100 µM,> 100 µM,> 100 µM,> 100 µM,> 100 µM,> 100 µM
CN(CC(=O)O)Cc1c[nH]c2ccccc12,,> 100 µM,,> 100 µM,,> 100 µM,,> 100 µM,,> 100 µM,,> 100 µM,,> 100 µM
N=C(N)c1ccc(-c2ccc(-c3ccccc3)o2)o1,3.03 µM,11.7 µM,3.55 µM,11.7 µM,2.34 µM,9.37 µM,3.31 µM,10.2 µM,5.78 µM,19.8 µM,4 µM,16.9 µM,2.64 µM,10.1 µM
CC/C(=C(/c1ccc(Cl)cc1)c1ccc(OCCCN(C)C)cc1)c1ccc(OC)cc1,5.5 µM,12.1 µM,3.88 µM,10.7 µM,5.76 µM,12.6 µM,1.05 µM,2.53 µM,7.43 µM,15.1 µM,8.05 µM,17.6 µM,1.12 µM,2.71 µM
COC(=O)c1cccc(COc2ccc([N+](=O)[O-])cc2Cl)c1,,> 100 µM,,> 100 µM,,> 100 µM,,> 100 µM,,> 100 µM,,> 100 µM,,> 100 µM
Clc1ccc2c(NCCCNCc3ccc4c(c3)OCO4)ccnc2c1,14.4 µM,27.6 µM,9.47 µM,22.8 µM,9.4 µM,24 µM,2.68 µM,10.2 µM,8.59 µM,23.8 µM,3.64 µM,13.1 µM,4.08 µM,17.2 µM
Nc1nc(N)c(N=Nc2ccc([As](=O)(O)O)c(O)c2)c(N)n1,,> 100 µM,,> 100 µM,,> 100 µM,,> 48.3 µM,,> 100 µM,,> 100 µM,,> 100 µM
